Tests used:
Details in all cases: 72 h
Caco-2 [1] = assay: cell viability relative to DMSO; higher = less toxic
Calu-3 [2] = assay: as above
HepG2 [3] = assay: as above
Vero E6 [4] = assay: as above
Caco-2 [5] = assay: relative viability EC50 (midpoint between 100% and the lowest measured viability); higher = less toxic
Calu-3 [6] = assay: as above
HepG2 [7] = assay: as above
Vero E6 [8] = assay: as above
Caco-2 [9] = assay: drug sensitivity score (DSS) for viability; higher = more toxic; extreme values may be limits of the assay
Calu-3 [10] = assay: as above
HepG2 [11] = assay: as above
Vero E6 [12] = assay: as above
U2OS [13] = assay: cell viability relative to DMSO; higher = less toxic
U2OS [14] = assay: relative viability EC50 (midpoint between 100% and the lowest measured viability); higher = less toxic
U2OS [15] = assay: drug sensitivity score (DSS) for viability; higher = more toxic; extreme values may be limits of the assay

Row | Compound | cell viability (Caco-2 [1]; 1 nM) [%] | cell viability (Caco-2 [1]; 10 nM) [%] | cell viability (Caco-2 [1]; 100 nM) [%] | cell viability (Caco-2 [1]; 1000 nM) [%] | cell viability (Caco-2 [1]; 10000 nM) [%] | cell viability (Calu-3 [2]; 1 nM) [%] | cell viability (Calu-3 [2]; 10 nM) [%] | cell viability (Calu-3 [2]; 100 nM) [%] | cell viability (Calu-3 [2]; 1000 nM) [%] | cell viability (Calu-3 [2]; 10000 nM) [%] | cell viability (HepG2 [3]; 1 nM) [%] | cell viability (HepG2 [3]; 10 nM) [%] | cell viability (HepG2 [3]; 100 nM) [%] | cell viability (HepG2 [3]; 1000 nM) [%] | cell viability (HepG2 [3]; 10000 nM) [%] | cell viability (Vero E6 [4]; 1 nM) [%] | cell viability (Vero E6 [4]; 10 nM) [%] | cell viability (Vero E6 [4]; 100 nM) [%] | cell viability (Vero E6 [4]; 1000 nM) [%] | cell viability (Vero E6 [4]; 10000 nM) [%] | relative viability EC50 (Caco-2 [5]) [µM] | relative viability EC50 (Calu-3 [6]) [µM] | relative viability EC50 (HepG2 [7]) [µM] | relative viability EC50 (Vero E6 [8]) [µM] | drug sensitivity score (Caco-2 [9]) | drug sensitivity score (Calu-3 [10]) | drug sensitivity score (HepG2 [11]) | drug sensitivity score (Vero E6 [12]) | cell viability (U2OS [13]; 1 nM) [%] | cell viability (U2OS [13]; 10 nM) [%] | cell viability (U2OS [13]; 100 nM) [%] | cell viability (U2OS [13]; 1000 nM) [%] | cell viability (U2OS [13]; 10000 nM) [%] | relative viability EC50 (U2OS [14]) [µM] | drug sensitivity score (U2OS [15])
1 | CC(=O)N1CCC[C@H]1C(=O)N[C@@H](Cc1cnc[nH]1)C(=O)N[C@@H](CO)C(=O)N[C@@H](CS)C(=O)N[C@@H](CC(N)=O)C(N)=O [ATN-161] | 107 | 96.6 | 97.5 | 103 | 104 | 102 | 102 | 101 | 107 | 97.2 | 102 | 104 | 106 | 93.4 | 106 | 92.9 | 103 | 96.9 | 100 | 108 | > 10 | > 10 | > 10 | > 10 | 0 | 0 | 0 | 0 | – | – | – | – | – | – | –
2 | O=C(CCCCCCC(=O)Nc1cccnc1)NO [pyroxamide] | 102 | 92.9 | 94.3 | 91.6 | 47.6 | – | – | – | – | – | 106 | 99.6 | 98.7 | 76.8 | 7.6 | 99.6 | 103 | 96.3 | 99.9 | 46 | 1.93 | – | 1.54 | 3.14 | 4.2 | – | 8.7 | 2.9 | 102 | 97.8 | 101 | 90 | 12.6 | 2.22 | 6.5
3 | COC(=O)c1ccccc1O [methyl-salicylate] | 103 | 99.4 | 101 | 81 | 101 | – | – | – | – | – | 112 | 101 | 102 | 90.9 | 102 | 110 | 104 | 102 | 102 | 97.3 | > 10 | – | > 10 | > 10 | 0 | – | 0 | 0 | 98.4 | 97.2 | 101 | 101 | 102 | > 10 | 0
4 | O=C1COc2nccc(-c3ccccc3F)c2CN1Cc1cc(C(F)(F)F)cc(C(F)(F)F)c1 [GPBAR-A] | 102 | 102 | 106 | 102 | 86.9 | 81.2 | 104 | 67.2 | 98.7 | 68.1 | 108 | 91.3 | 103 | 94.4 | 100 | 101 | 99 | 98.9 | 101 | 102 | > 10 | – | > 10 | > 10 | 0.1 | 4.3 | 0 | 0 | 97.7 | 103 | 100 | 104 | 91.2 | > 10 | 0
5 | C[C@@H]1COCCN1c1cc(C2([S@](C)(=N)=O)CC2)nc(-c2ccnc3[nH]ccc23)n1 [AZD6738] | 92.8 | 100 | 103 | 96.7 | 49.8 | 92.8 | 96 | 108 | 92.7 | 50.2 | 94.5 | 88.6 | 104 | 67.7 | 35.6 | 98.8 | 94.5 | 92.1 | 90.9 | 78.5 | 2.65 | – | 0.998 | > 10 | 3.1 | 3.9 | 7.6 | 1.3 | 94.1 | 101 | 100 | 96.8 | 16.8 | 2.88 | 5.1
6 | O=C(O)[C@H](Cc1c[nH]c2ccccc12)N1C(=O)c2ccccc2C1=O [RG108] | 96.8 | 100 | 91.9 | 106 | 102 | – | – | – | – | – | 118 | 109 | 114 | 99.8 | 109 | 97.4 | 99.1 | 97.6 | 92 | 101 | > 10 | – | > 10 | > 10 | 0 | – | 0 | 0 | 105 | 105 | 97.1 | 105 | 96.2 | > 10 | 0
7 | CC(C)[C@H]1C(=O)N[C@@H](CCCNC(=N)N)C(=O)NCC(=O)N[C@@H](CC(=O)O)C(=O)N[C@H](Cc2ccccc2)C(=O)N1C [cilengitide] | 98.6 | 95.4 | 96.5 | 80.5 | 41.1 | 97.6 | 94.3 | 87.1 | 89.4 | 70.5 | 103 | 103 | 92.6 | 116 | 103 | 98.1 | 101 | 98.8 | 79.8 | 17 | 1.39 | – | > 10 | 1.57 | 5.8 | 2.8 | 0 | 7.7 | – | – | – | – | – | – | –
